Common to all, as to assay: Bliss excess, mean over the matrix (fraction); higher = more synergy
The subject of one assay is 786-0 (Kidney Carcinoma). The essentials:
(§1)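 Bliss excess equals the observed combination effect minus the expected value EA + EB − EA·EB, where EA and EB are the effects of each agent alone. Combination Emax is the second-highest inhibition within the matrix. Inhibition was scaled from CellTiter-Glo 2.0 luminescence, with 0 set by vehicle wells and 1 by blank wells, after 72 hours of two-drug dosing of cells plated in 1536-well plates.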

In assay [1] the test system is BALL-1 (B-Lymphoblastic Leukemia). The essentials: as §1
The subject of assay [2] is Becker (Low Grade Glioma). In short, it runs like this:
as §1

The next assay deals with CHL-1 (Melanoma). In short, it runs like this: as §1
Assay [3] concerns CML-T1 (Chronic Myelogenous Leukemia). In short, it runs like this: as §1
In assay [4] the test system is COLO-684 (Endometrial Carcinoma). In short, it runs like this:
as §1

Assay [5] concerns Calu-6 (Non-Small Cell Lung Carcinoma). In short, it runs like this: as §1
Another assay deals with ES-2 (Ovarian Carcinoma). The essentials:
as §1

For assay [6], the system named is FLO-1 (Esophageal Adenocarcinoma). The essentials: as §1
Assay [7] has as its system HTC-C3 (Thyroid Gland Carcinoma). In short, it runs like this: as §1
The test system of assay [8] is LAMA-84 (Chronic Myelogenous Leukemia). In short, it runs like this: as §1
Assay [9] relates to LOUCY (T-Lymphoblastic Leukemia). In short, it runs like this: as §1
In assay [10] the test system is NCI-H1563 (Lung Adenocarcinoma). The essentials: as §1
Assay [11] has as its system NCI-H1623 (Lung Adenocarcinoma). In short, it runs like this:
as §1

In assay [12] the test system is NCI-H196 (Small Cell Lung Carcinoma). The essentials:
as §1

Assay [13] concerns NCI-H810 (Non-Small Cell Lung Carcinoma). The essentials: as §1
The subject of assay [14] is PC-14 (Lung Adenocarcinoma). The essentials:
as §1

Assay [15] relates to RERF-LC-KJ (Lung Adenocarcinoma). In short, it runs like this:
as §1

For assay [16], the system named is RL95-2 (Endometrial Carcinoma). The essentials:
as §1

In assay [17] the test system is SW684 (Other Solid Carcinomas). In short, it runs like this: as §1

This is an account of results in the supplement of paper PMC11061612.

As for `CC1(C)CCC(CN2CCN(c3ccc(C(=O)NS(=O)(=O)c4ccc(NCC5CCOCC5)c([N+](=O)[O-])c4)c(Oc4cnc5[nH]ccc5c4)c3)CC2)=C(c2ccc(Cl)cc2)C1` [Venetoclax] + C=CCn1c(=O)c2cnc(Nc3ccc(N4CCN(C)CC4)cc3)nc2n1-c1cccc(C(C)(C)O)n1 [AZD1775] (first compound max 1 µM, partner max 1 µM), the Bliss excess in the assay with 786-0 (Kidney Carcinoma) is -0.0686; in [1] it was 0.0171; in assay [2] it was 0.0593; in the assay on CHL-1 (Melanoma) it was 0.0577; in [3], 0.0106; in [4], -0.0644. The Bliss excess is -0.0317 in assay [5]; -0.0297 with ES-2 (Ovarian Carcinoma); 0.0161 in [6]; -0.065 in assay [7]; 0.0884 in assay [8]; 0.0193 in assay [9]. Moreover, the Bliss excess in assay [10] was 0.0451; in assay [11], -0.0218; in [12], -0.0007; in assay [13], -0.0873; in assay [14], -0.0027; in assay [15], -0.0394. Also, the Bliss excess in assay [16] is 0.0277; in assay [17] it was 0.032.

For `Cc1c2c(nn1C)CSCc1cc(n(C)n1)CSc1cc(c3ccccc3c1)OCCCc1c(C(=O)O)n(C)c3c-2c(Cl)ccc13` [AZD5991] + Cn1cnc2c(F)c(Nc3ccc(Br)cc3Cl)c(C(=O)NOCCO)cc21 [Selumetinib] (first compound max 1 µM, 7x7, partner max 3 µM), the Bliss excess with 786-0 (Kidney Carcinoma) was 0.0107; in assay [1], -0.0064; in [2] it was -0.0092; with CHL-1 (Melanoma), -0.0031; in assay [3] it was 0.0516; in [4], -0.0177. Also, the Bliss excess was 0.0572 in assay [5]; 0.0389 in the assay on ES-2 (Ovarian Carcinoma); -0.055 in [6]; -0.0271 in assay [7]; 0.102 in assay [8]; 0.0129 in assay [9]. The Bliss excess in [10] is 0.0158; in assay [11], 0.0184; in assay [12] it was -0.0374; in assay [13], -0.0133; in [14], 0.0286; in assay [15], 0.0466. In addition, the Bliss excess in assay [16] is 0.0336; in assay [17] it was -0.0091.

Regarding `CCN(CCO)CCCOc1ccc2c(Nc3cc(CC(=O)Nc4cccc(F)c4)[nH]n3)ncnc2c1` [AZD2811] + O=C(c1cc(Cc2n[nH]c(=O)c3ccccc23)ccc1F)N1CCN(C(=O)C2CC2)CC1 [Olaparib] (first compound max 1 µM, 7x7, partner max 10 µM), the Bliss excess with 786-0 (Kidney Carcinoma) is -0.0274; in assay [1] it was 0.147; in assay [2], -0.0371; in the assay on CHL-1 (Melanoma), -0.0035; in [3], 0.029; in assay [4] it was -0.0102. The Bliss excess in assay [5] is 0.0004; in the assay with ES-2 (Ovarian Carcinoma) it was -0.0182; in assay [6], -0.0153; in [7], -0.0101; in assay [8], 0.0269; in assay [9], -0.0463. Also, the Bliss excess in assay [10] was -0.0221; in [11], -0.0526; in [12], -0.0193; in assay [13], -0.016; in [14], 0.0228; in [15], -0.0471. In addition, the Bliss excess in [16] was -0.0101; in [17], -0.0219.

`CC(=O)c1c(C)c2cnc(Nc3ccc(N4CCNCC4)cn3)nc2n(C2CCCC2)c1=O` [Palbociclib] + Cc1c2c(nn1C)CSCc1cc(n(C)n1)CSc1cc(c3ccccc3c1)OCCCc1c(C(=O)O)n(C)c3c-2c(Cl)ccc13 [AZD5991] (first compound max 10 µM, 7x7, partner max 1 µM): the Bliss excess in the assay on 786-0 (Kidney Carcinoma) is 0.0201; in assay [1] it was -0.0683; in assay [2], 0.0059; in the assay on CHL-1 (Melanoma), 0.0344; in assay [3], -0.0233; in assay [4] it was -0.0173. The Bliss excess in assay [5] is -0.0227; with ES-2 (Ovarian Carcinoma) it was -0.0182; in assay [6], 0.0084; in assay [7] it was 0.0082; in [8], 0.0056; in assay [9], 0.0154. Moreover, the Bliss excess in [10] was -0.098; in assay [11] it was -0.0321; in [12] it was -0.0784; in assay [13] it was -0.0444; in [14], -0.0106; in assay [15], -0.0723. Moreover, the Bliss excess was -0.0841 in [16] and -0.0906 in [17].

Regarding `Cc1cc2ncnn2cc1Nc1ncc2c(n1)n(C1CCOCC1)c(=O)n2C` [AZD7648] + CCN(CCO)CCCOc1ccc2c(Nc3cc(CC(=O)Nc4cccc(F)c4)[nH]n3)ncnc2c1 [AZD2811] (first compound max 10 µM, 7x7, partner max 1 µM), the Bliss excess is 0.0259 in the assay on 786-0 (Kidney Carcinoma); 0.13 in [1]; 0.0154 in assay [2]; 0.0203 in the assay with CHL-1 (Melanoma); 0.069 in assay [3]; 0.0234 in assay [4]. Further, the Bliss excess was 0.0268 in [5]; 0.0083 with ES-2 (Ovarian Carcinoma); 0.0161 in assay [6]; 0.0226 in assay [7]; 0.115 in assay [8]; -0.043 in [9]. In addition, the Bliss excess in assay [10] was 0.0036; in assay [11], -0.0311; in assay [12], -0.0181; in assay [13], -0.0162; in assay [14], 0.0257; in [15], 0.0428. Moreover, the Bliss excess in assay [16] was 0.0646; in assay [17], -0.027.

For `CN(C)CCCOc1ccc(-c2ccc3ncc4c(c3c2)n(C2CCOCC2)c(=O)n4C)cn1` [AZD0156] + O=C(c1cc(Cc2n[nH]c(=O)c3ccccc23)ccc1F)N1CCN(C(=O)C2CC2)CC1 [Olaparib] (first compound max 3 µM, partner max 3 µM), the Bliss excess with 786-0 (Kidney Carcinoma) was 0.0418; in assay [1], 0.158; in assay [2], -0.0359; with CHL-1 (Melanoma) it was -0.0224; in [3] it was 0.178; in [4], 0.0274. Further, the Bliss excess in assay [5] was 0.0096; in the assay with ES-2 (Ovarian Carcinoma), 0.0327; in assay [6] it was 0.0512; in [7], -0.0502; in assay [8] it was 0.167; in assay [9], 0.125. Besides, the Bliss excess in assay [10] was -0.0158; in [11] it was 0.0126; in assay [12], -0.0505; in [13] it was 0.0541; in assay [14] it was -0.0009; in assay [15], -0.0459. The Bliss excess in assay [16] is 0.11; in assay [17] it was -0.0388.
